Measured values: article PMC4415909 (Journal of Medicinal Chemistry, 2015)
Counter-ions that a name gives are not always drawn.

Key:
[1] = tested on: retinal pigment epithelium (RPE) layer of the eye; conditions: cited from earlier work
[2] = biological target: BACE1 (Homo sapiens, UniProt P56817); type: biochemical
[3] = Human hepatocyte clearance; type: in vitro ADME; conditions: hepatocytes
[4] = tested on: major CYP-P450s (1A2, 2C9, 2D6, 3A4, 2C8, 2C19); test: Multipoint cocktail DDI IC50 assay, major CYP-P450s; type: in vitro ADME; conditions: human, pooled human liver microsomes (HL-MIX-102), pH 7.4
[5] = biological target: hERG (Homo sapiens, UniProt Q12809); test: hERG patch clamp assay in hERG-expressing CHO cells; type: cell-based; conditions: pH 7.35
[6] = cited from earlier work

Sequence of BACE1 (P56817 46-457 limits assumed): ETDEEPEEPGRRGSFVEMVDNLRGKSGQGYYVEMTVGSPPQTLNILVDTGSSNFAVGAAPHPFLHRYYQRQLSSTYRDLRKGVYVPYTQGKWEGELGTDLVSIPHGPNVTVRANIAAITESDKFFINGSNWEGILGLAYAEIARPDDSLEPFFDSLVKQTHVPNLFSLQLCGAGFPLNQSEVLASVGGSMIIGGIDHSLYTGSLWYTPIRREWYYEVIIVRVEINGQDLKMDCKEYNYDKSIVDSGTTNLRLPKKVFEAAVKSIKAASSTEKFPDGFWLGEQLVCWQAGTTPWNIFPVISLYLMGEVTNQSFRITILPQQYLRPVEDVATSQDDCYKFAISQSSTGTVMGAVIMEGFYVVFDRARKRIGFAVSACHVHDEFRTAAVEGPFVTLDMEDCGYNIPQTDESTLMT
Sequence of hERG (Q12809 whole entry): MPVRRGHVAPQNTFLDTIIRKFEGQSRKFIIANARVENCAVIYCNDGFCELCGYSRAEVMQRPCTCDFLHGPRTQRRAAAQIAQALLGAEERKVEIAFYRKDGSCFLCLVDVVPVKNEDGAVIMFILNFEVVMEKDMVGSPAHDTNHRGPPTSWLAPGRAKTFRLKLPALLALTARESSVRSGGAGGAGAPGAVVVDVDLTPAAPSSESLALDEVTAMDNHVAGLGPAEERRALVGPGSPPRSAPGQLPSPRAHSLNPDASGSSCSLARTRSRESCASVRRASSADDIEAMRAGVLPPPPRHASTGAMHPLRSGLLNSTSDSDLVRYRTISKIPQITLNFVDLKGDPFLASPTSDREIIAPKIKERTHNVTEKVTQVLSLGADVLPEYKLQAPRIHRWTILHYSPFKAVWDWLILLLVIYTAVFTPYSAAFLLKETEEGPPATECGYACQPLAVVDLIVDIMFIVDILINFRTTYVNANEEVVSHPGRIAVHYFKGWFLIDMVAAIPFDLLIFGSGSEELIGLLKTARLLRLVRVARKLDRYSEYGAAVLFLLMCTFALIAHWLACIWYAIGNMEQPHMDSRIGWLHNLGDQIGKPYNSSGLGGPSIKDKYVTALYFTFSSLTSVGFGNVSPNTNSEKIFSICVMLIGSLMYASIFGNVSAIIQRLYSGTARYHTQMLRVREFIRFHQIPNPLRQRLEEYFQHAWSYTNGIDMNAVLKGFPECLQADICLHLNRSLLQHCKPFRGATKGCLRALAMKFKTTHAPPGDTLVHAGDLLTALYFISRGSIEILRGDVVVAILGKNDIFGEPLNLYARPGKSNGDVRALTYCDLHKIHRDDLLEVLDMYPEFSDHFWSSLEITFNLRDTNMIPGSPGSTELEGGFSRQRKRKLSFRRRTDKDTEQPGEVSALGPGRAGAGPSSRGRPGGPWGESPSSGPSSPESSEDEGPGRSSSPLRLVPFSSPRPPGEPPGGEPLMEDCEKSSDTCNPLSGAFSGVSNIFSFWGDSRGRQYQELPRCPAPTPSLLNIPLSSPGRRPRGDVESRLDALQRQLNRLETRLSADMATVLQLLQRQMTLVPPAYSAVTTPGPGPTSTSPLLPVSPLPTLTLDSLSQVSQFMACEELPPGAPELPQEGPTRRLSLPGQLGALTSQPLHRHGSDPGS

SMILES: CC1(C#Cc2cnc3c(c2)[C@]2(COC(N)=N2)c2cc(-c4cccnc4F)ccc2O3)COC1 [AMG-8718]
- finding in rat safety studies [1]: accumulation of autofluorescent material and degeneration of the retinal pigment epithelium (RPE) layer of the eye

SMILES: NC1=N[C@@]2(c3ccc(F)cc3F)CO[C@@H](c3ncco3)C[C@H]2CS1 [Compound 2, (4aR,6R,8aS)-8a-(2,4-Difluorophenyl)-6-(oxazol-2-yl)-4,4a,5,6,8,8a-hexahydropyrano[3,4-d][1,3]thiazin-2-amine]
- improvement of BACE1 potency over 1 [2]: ~2 fold
- LipE ([2]; LipE = BACE1 CFA pIC50 – log D): 5.2

SMILES: Cc1coc([C@H]2C[C@H]3CSC(N)=N[C@@]3(c3ccc(F)cc3F)CO2)n1 [Compound 3, (4aR,6R,8aS)-8a-(2,4-Difluorophenyl)-6-(4-methyloxazol-2-yl)-4,4a,5,6,8,8a-hexahydropyrano[3,4-d][1,3]thiazin-2-amine]
- improvement of BACE1 potency over compound 2 [2]: approximately 10 fold

SMILES: Cc1cc([C@H]2C[C@H]3CSC(N)=N[C@@]3(c3ccc(F)cc3F)CO2)on1 [Compound 4, (4aR, 6R, 8aS)-8a-(2,4-Difluorophenyl)-6-(3-methyl-1,2-oxazo1-5-yl)-4,4-a,5,6,8,8a-hexahydropyrano [3,4-][1,3]thiazin-2-amine]
- improvement of BACE1 potency over compound 2 [2]: approximately 10 fold

SMILES: Cn1cc([C@H]2C[C@H]3CSC(N)=N[C@@]3(c3ccc(F)cc3F)CO2)cn1 [Compound 5, (4aR,6R,8aS)-8a-(2,4-Difluorophenyl)-6-(1-methyl-1H-pyrazol-4-yl)-4,4a,5,6,8,8a-hexahydropyrano[3,4-d][1,3]thiazin-2-amine]
- improvement of BACE1 potency over compound 2 [2]: approximately 10 fold
- hepatocyte CLint [3]: < 6 µL/min/1e6 cells

SMILES: Cc1coc([C@H]2C[C@H]3[C@@H](C)SC(N)=N[C@@]3(c3ccc(F)cc3F)CO2)n1 [Compound 9, (4R,4aR,6R,8aS)-8a-(2,4-Difluorophenyl)-4-methyl-6-(4-methyloxazol-2-yl)-4,4a,5,6,8,8a-hexahydropyrano[3,4-d][1,3]thiazin-2-amine]
- IC50 [4]: > 30 µM

SMILES: Cc1coc([C@H]2C[C@H]3[C@@H](CF)SC(N)=N[C@@]3(c3ccc(F)cc3F)CO2)n1 [Compound 12, (4S,4aR,6R,8aS)-8a-(2,4-Difluorophenyl)-4-(fluoromethyl)-6-(4-methyloxazol-2-yl)-4,4a,5,6,8,8a-hexahydropyrano[3,4-d][1,3]thiazin-2-amine]
- IC50 [4]: > 30 µM

SMILES: Cc1cc([C@H]2C[C@H]3[C@@H](CF)SC(N)=N[C@@]3(c3ccc(F)cc3F)CO2)on1 [Compound 13, (4S,4aR,6R,8aS)-8a-(2,4-Difluorophenyl)-4-(fluoromethyl)-6-(3-methyl-1,2-oxazol-5-yl)-4,4a,5,6,8,8a-hexahydropyrano[3,4-d][1,3]thiazin-2-amine]
- IC50 [4]: > 30 µM
- improvement of hERG margin compared to isoxazole 10 [5]: greater than 7 fold

SMILES: Cn1cc([C@H]2C[C@H]3[C@@H](CF)SC(N)=N[C@@]3(c3ccc(F)cc3F)CO2)cn1 [Compound 14, (4S,4aR,6R,8aS)-8a-(2,4-Difluorophenyl)-4-(fluoromethyl)-6-(1-methyl-1H-pyrazol-4-yl)-4,4a,5,6,8,8a-hexahydropyrano[3,4-d][1,3]thiazin-2-amine, Hydrochloride Salt]
- IC50 [4]: > 30 µM

SMILES: C[C@@]1(c2cc(-c3cncnc3)c(F)cc2F)CCSC(N)=N1 [LY2811376]
- finding in rat safety studies [1]: accumulation of autofluorescent material and degeneration of the retinal pigment epithelium (RPE) layer of the eye

SMILES: NC1=N[C@@]2(c3cc(NC(=O)c4ccc(F)cn4)ccc3F)COC[C@H]2CS1 [LY2886721]
- finding that terminated phase II study [6]: abnormal liver biochemical tests
